Laboratory results taken from article PMC3684613 (PLoS ONE, 2013).
Where two headings read alike, the source gives them in different places.

How the values were obtained:
P. falciparum 3D7 [1] = system: P. falciparum 3D7; design: method as in ChEMBL-NTD; conditions: ref ChEMBL-NTD, cited from earlier work
P. falciparum 3D7 [2] = experiment: DAPI stain fluorescent high content imaging assay, P. falciparum 3D7 (confirmatory screen, Avery); conditions: Plasmodium falciparum; for EC50: 3D7, read-out: EC50_nM; for inhibition of growth at 5 µM: 3D7, read-out: percent_inh @ 5 uM; for inhibition of growth at 2 µM: 3D7, read-out: percent_inh @ 2 uM
[3] = original screening data, source (GSK, GNF, StJude), several values separated by ';' in order of sources

Row | SMILES | EC50 (P. falciparum 3D7 [2]) [µM] | inhibition of growth at 5 µM (P. falciparum 3D7 [2]) [%] | also measured
1 | COc1ccccc1CNC(=O)CCn1c(=O)[nH]c2ccccc2c1=O [MMV665916] | 0.0726 | 64 | EC50 (P. falciparum 3D7 [1]; source GNF (GNF-Pf id)): 0.537 µM
2 | CCN1CCN(Cc2ccc(NC(=O)c3cc4ccc5cccnc5c4[nH]3)cc2)CC1 [MMV020548] | 0.361 | 70 | EC50 (P. falciparum 3D7 [1]; source GSK (TCMDC id)): 0.848 µM
3 | O=C1C2=C(Nc3ccccc3SC2c2ccccc2)c2ccccc21 (centres unmarked) [MMV645672] | 0.89 |  | 
4 | O=C(Nc1ccc(Cl)cc1C(=O)Nc1ccncc1)c1ccc(Cl)cc1Cl [MMV666057] |  | 94 | EC50 (P. falciparum 3D7 [1]; source GSK): 0.611 µM
5 | O=C(CSc1ccc2nnc(-c3cccc(F)c3)n2n1)Nc1ccc2c(c1)OCO2 [MMV665918] |  | 92 | EC50 (P. falciparum 3D7 [1]; source GNF): 2.11 µM
6 | CCOc1cc(Cl)c(C(C)NC(=O)c2cccc(OC)c2)cc1OCC (centres unmarked) [MMV665803] | 0.728 | 98 | EC50 (P. falciparum 3D7 [1]; source GSK): 0.956 µM
7 | Cc1ccc(CN2CCC(C(=O)Nc3ccc(-c4cc5ccccc5[nH]4)cc3)CC2)o1 [MMV666071] |  | 77 | EC50 (P. falciparum 3D7 [1]; source GSK): 1.42 µM
8 | CNCCCNc1ccnc2cc(Cl)ccc12 [MMV020500] | 0.0822 | 98 | EC50 (P. falciparum 3D7 [1]; source GSK (TCMDC id)): 0.0624 µM
9 | O=C(Nc1ccccc1O)c1ccc(-c2ccc(Cl)cc2Cl)o1 [MMV665948] |  | 97 | EC50 (P. falciparum 3D7 [1]; source StJude): 2.46 µM
10 | O=C(NC1CCN(Cc2ccccc2)CC1)c1cc2nc(-c3ccc(Cl)s3)cc(C(F)(F)F)n2n1 [MMV396635] | 0.959 |  | 
11 | CCOC(=O)C1=C(c2ccccc2)N=c2sc(=Cc3cc(C)n(-c4ccc(F)cc4)c3C)c(=O)n2C1c1cccc(OC)c1OC (centres unmarked) [MMV666601] | 0.154 | 94 | EC50 (P. falciparum 3D7 [1]; source GNF (GNF-Pf id)): 2.33 µM
12 | O=C(Nc1ccc(CN2CCOCC2)cc1)c1ccc(-c2cc(Cl)ccc2Cl)o1 [MMV020651] | 1.95 | 97 | EC50 (P. falciparum 3D7 [1]; [3]): 0.613 µM
13 | CCCCc1c(C)nc2c(OC)cccc2c1O [MMV006820] | 4 |  | EC50 (P. falciparum 3D7 [1]; [3]): 1.69 µM; inhibition of growth at 2 µM (P. falciparum 3D7 [2]): 92%
14 | COc1cccc(C2(C)Nc3ccccc3-c3nc4ccccc4n32)c1 (centres unmarked) [MMV396719] | 1.15 |  | 
15 | COc1ccc(-c2cc3c(SCC(=O)Nc4cc(C(F)(F)F)ccc4Cl)nccn3n2)cc1 [MMV396679] | 0.0899 |  | 
16 | COc1cc2cc(C(=O)Nc3ccccc3)c(N)nc2cc1OC [MMV006767] |  | 99 | 
17 | CN(C)c1ccc(N2C(N)=NC(N)=NC2(C)C)cc1 [MMV667487] |  |  | inhibition of growth at 2 µM (P. falciparum 3D7 [2]): 95%
18 | COc1cccc(Cn2c(Oc3ccccc3)nc3c2c(=O)n(C)c(=O)n3C)c1 [MMV396705] | 1.39 |  | 
19 | Cc1cc(NC(=O)c2cccc(C(F)(F)F)c2)n(-c2nc(-c3ccc4c(c3)OCO4)cs2)n1 [MMV396681] | 0.959 |  | 
20 | Cc1ccc(Nc2nc(N)c3ccccc3n2)cc1Cl [MMV011522] | 4 |  | inhibition of growth at 2 µM (P. falciparum 3D7 [2]): 96%
21 | COc1ccc(-c2nc(N3CCN(C(=O)C4CCCCC4)CC3)c3c4c(sc3n2)CCCC4)cc1 [MMV396594] | 1.06 |  | 

Row | SMILES | EC50 (P. falciparum 3D7 [2]) [µM] | inhibition of growth at 5 µM (P. falciparum 3D7 [2]) [%] | also measured
22 | CN(N=O)C1=C(NC2CCCCC2)C(=O)c2ccccc2C1=O [MMV667492] | 1.19 |  | 
23 | COc1ccc2nc(C)cc(Nc3ccc(Cl)cc3)c2c1 [MMV007875] | 2 |  | inhibition of growth at 2 µM (P. falciparum 3D7 [2]): 95%
24 | CC(C)(C)CC(C)(C)NCC(O)COc1ccc(Cl)cc1Cl (centres unmarked) [MMV396794] | 1.16 |  | 
25 | N=c1n(CCN2CCCCC2)c2ccccc2n1CC(=O)c1ccc(Cl)c(Cl)c1 [MMV396723] | 1.24 |  | 
26 | COC(=O)c1ccc(Cl)c2c1C1C=CCC1C(c1cccc3ccccc13)N2 (centres unmarked) [MMV667489] | 0.939 |  | 
27 | Oc1c(C(Nc2ccccn2)c2cccc(Oc3ccccc3)c2)ccc2cccnc12 (centres unmarked) [MMV665814] | 1.01 | 97 | 
28 | Brc1ccc(Nc2nc3ccccc3nc2Nc2ccc(Br)cc2)cc1 [MMV007224] | 1.06 | 98 | 
29 | CCOc1cc2c(cc1OCC)C(c1cc(Cl)ccc1O)NCC2 (centres unmarked) [MMV000478] | 0.746 | 98 | 
30 | CCOc1ccc(N2C(N)=NC(N)=NC2(C)C)cc1 [MMV667486] |  |  | inhibition of growth at 2 µM (P. falciparum 3D7 [2]): 92%
31 | C[n+]1c2ccccc2nc2ccc(NCCO)cc21 [MMV396693] | 0.296 |  | 
32 | COc1ccc(C=C2SC(Nc3ccccc3)=NC2=O)cc1 [MMV665836] | 0.551 | 71 | 
33 | Cc1sc(NC(=O)c2ccccc2)c(C(c2cccs2)N2CCN(c3ccccc3)CC2)c1C (centres unmarked) [MMV396652] | 1.18 |  | 
34 | CCOc1cc(CNC(C)C(O)c2ccccc2)cc(Cl)c1OCC (centres unmarked) [MMV396633] | 1.24 |  | 
35 | O=C(CSc1nccn2nc(-c3ccccc3)cc12)Nc1cc(C(F)(F)F)ccc1Cl [MMV396678] | 0.218 |  | 
36 | Cc1cc(N2CCCC2)nc(Nc2ccc(NC(=O)CCc3ccccc3)cc2)n1 [MMV396669] | 1.07 |  | 
37 | COc1ccc(C2c3ccc4ccccc4c3Oc3ncn(CCCN(C)C)c(=N)c32)cc1 (centres unmarked) [MMV667491] | 1.23 |  | 
38 | CCOc1ccccc1CN1CCc2nc3cc(C(C)(C)C)nn3c(O)c2C1 [MMV396595] | 1.01 |  | 
39 | COc1ccc2c(c1)C1(Nc3ccccc3-c3nc4ccccc4n31)C(=O)N2 (centres unmarked) [MMV396749] | 0.928 |  | 
40 | Oc1ccccc1CN1CCN(C(c2ccccc2)c2ccccc2)CC1 [MMV011795] | 0.611 | 97 | 
41 | OC(CNCC1CCCO1)Cn1c2ccc(Cl)cc2c2cc(Cl)ccc21 (centres unmarked) [MMV396736] | 1.06 |  | 

Second part, led by results:

Row | EC50 (P. falciparum 3D7 [2]) [µM] | SMILES | inhibition of growth at 5 µM (P. falciparum 3D7 [2]) [%] | also measured
42 | 0.995 | O=c1nc(C=Cc2ccc(Cl)cc2)oc2ccccc12 [MMV007977] | 76 | 
43 | 1.26 | CC(C)c1ccc(CNCC(O)c2ccccc2)cc1 (centres unmarked) [MMV001049] | 96 | EC50 (P. falciparum 3D7 [1]; [3]): 1.35 µM
44 | 0.769 | Cc1c(C)n(CC(O)CNC2CCCCC2C)c2ccccc12 (centres unmarked) [MMV665806] | 96 | EC50 (P. falciparum 3D7 [1]; [3]): 0.527 µM
45 | 0.454 | Cc1ccc(C2CC(C(F)(F)F)n3nc(C(=O)N4CCN(C(c5ccccc5)c5ccccc5)CC4)cc3N2)cc1 (centres unmarked) [MMV000699] | 98 | EC50 (P. falciparum 3D7 [1]; source StJude (SJ ids)): 0.668 µM
46 | 1.79 | COc1ccc(C2c3ccc4ccccc4c3Oc3ncn(CCCn4ccnc4)c(=N)c32)cc1OC (centres unmarked) [MMV667490] |  | 
47 | 1.43 | CN1CCN(c2nc(Nc3ccc(O)cc3)nc3ccccc23)CC1 [MMV000986] |  | 
48 | 0.693 | CCn1nc(-c2ccc(C(=O)OC)cc2)nc2c(=O)n(C)c(=O)nc1-2 [MMV306025] |  | 
49 | 0.916 | COc1ccc(CCN2C(=O)c3[nH]nc(-c4cc(Cl)c(C)cc4O)c3C2c2ccccc2F)cc1 (centres unmarked) [MMV396717] |  | 
50 | 1.01 | O=C(Nc1cccc(C2=NCCN2)c1)Nc1cccc(C2=NCCN2)c1 [MMV665810] | 83 | 
51 | 0.589 | COc1ccc(Nc2nc(NCc3ccccc3)c3ccccc3n2)cc1 [MMV000963] |  | 
52 | 0.385 | Nc1ccn([C@@H]2O[C@H](CO)[C@@H](O)[C@H]2O)c(=O)n1 [MMV638723] |  | 
53 | 1 | Nc1nc(Nc2cccc(F)c2)nc2ccccc12 [MMV080034] |  | 
54 | 0.929 | Cc1cccc(-n2ncc3c(=O)[nH]c(-n4nc(C)cc4NC(=O)c4cc5ccccc5o4)nc32)c1 [MMV403679] |  | 
55 | 1.05 | CCOc1c(Cl)cc(CNCC(O)c2ccccc2)cc1OC (centres unmarked) [MMV396632] |  | 
56 | 0.433 | O=C(NCC(c1ccsc1)N1CCCCCC1)c1ccc(C(F)(F)F)cc1 (centres unmarked) [MMV396672] |  | 
57 | 0.0857 | Cc1cc(C)cc(Nc2cc(C)nc3nc(C(F)(F)F)nn23)c1 [MMV011259] |  | 
58 | 1.16 | N#Cc1nc(Cc2cccc3ccccc23)oc1N1CCN(C(c2ccccc2)c2ccccc2)CC1 [MMV396726] |  | 

Row | EC50 (P. falciparum 3D7 [2]) [µM] | SMILES | inhibition of growth at 5 µM (P. falciparum 3D7 [2]) [%] | also measured
59 | 0.686 | COc1ccc2nc(C)cc(Nc3ccccc3O)c2c1 [MMV274073] |  | 
60 | 0.898 | COc1cc(C(=O)Nc2nc3c(cc4c5c(cccc53)CC4)s2)cc(OC)c1OC [MMV396665] |  | 
61 | 0.0928 | Cc1ccc(-c2cc3c(SCC(=O)Nc4cc(C(F)(F)F)ccc4Cl)nccn3n2)cc1 [MMV396680] |  | 
62 | 1.73 | CC1(c2ccccc2)Nc2ccccc2-c2nc3ccccc3n21 (centres unmarked) [MMV396715] |  | 
63 | 1.02 | Cc1sc(NC(=O)c2ccco2)c(C(c2cccnc2)N2CCC(Cc3ccccc3)CC2)c1C (centres unmarked) [MMV396663] |  | 
64 | 0.941 | CCOc1ccc(C2N(C)c3ccccc3N2C)cc1 [MMV075490] | 72 | 
65 | 0.719 | CCN(CC)CCn1c(=N)n(CC(O)c2ccc(Cl)c(Cl)c2)c2ccccc21 (centres unmarked) [MMV000248] | 97 | 
66 | 0.406 | CCN(CC)CCNc1ncnc2c1[nH]c1ccc(Cl)cc12 [MMV396703] |  | 
67 | 0.615 | CCOC(=O)c1c(C)n(-c2ccccc2)c2ccc(OC(=O)c3cc(OC)c(OC)c(OC)c3)cc12 [MMV396664] |  | 
68 | 0.477 | COc1ccc(-c2c(C)nn3c(N)c(C#N)cnc23)cc1OC [MMV396797] |  | 
69 | 1.33 | O=C(NNc1cc(N2CCCC2)nc(N2CCCC2)n1)c1ccccc1 [MMV396770] |  | 
70 | 1.1 | CCOC(=O)c1cnc2ccc(OC)cc2c1Nc1ccc(N2CCN(C)CC2)cc1 [MMV000704] |  | 
71 | 1.19 | CN1CCN(c2ncnc3c2[nH]c2ccc(Cl)cc23)CC1 [MMV396704] |  | 
72 | 0.326 | Oc1ccc(-c2nc(-c3ccc4oc5ccc(-c6[nH]c(-c7ccc(O)cc7)nc6-c6ccccc6)cc5c4c3)c(-c3ccccc3)[nH]2)cc1 [MMV000753] | 98 | 
73 | 0.478 | COc1ccccc1N1C(=N)SC(=Cc2ccc(OCc3ccccc3F)cc2)C1=O [MMV007199] | 95 | 
74 | 0.832 | CC(C)CNC(=O)c1c(N)n(CCc2ccccc2F)c2nc3ccccc3nc12 [MMV396744] |  | 
75 | 0.591 | COc1ccc(C=C2SC(Nc3ccc(F)cc3)=NC2=O)c(OC)c1 [MMV084434] | 92 | 
